Data as given in patent publication US20240246918A1, “COMPOUNDS AND COMPOSITIONS AS EIF4E INHIBITORS AND THE USES THEREOF” (Ribometrix, Inc., priority 2022, published 2024).
Like-named read-outs stand apart in the source and are kept apart here.

Tests used:
[1] = tested on: cap-dependent translation in Flp-In-293 reporter cells; test: Cellular cap-dependent translation inhibition assay (dual luciferase assay, DLA; Fluc/Rluc ratio, 24 hours); type: cell-based
[2] = molecular target: T1, human eIF4E protein (Homo sapiens, UniProt P06730); test: Biochemical competitive binding assay (TR-FRET competition, EDA-m7GDP-ATTO-647N probe); details: read-out: hEIF4E TR-FRET IC50
T1 construct: purchased Novus NBP-45314
Procedure, shortened: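 IC50 values come from 4-parameter fits of the normalized 665/620 nm TR-FRET ratio. Compound was first incubated 15 min with 4 nM recombinant His-eIF4E bound to 2.5 nM Eu-anti-His antibody, then 15 min with 5 nM m7GDP-ATTO-647N tracer, in pH 7.5 HEPES buffer with 100 mM KCl, Tween-20 and BSA.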

[3] = tested on: COLO 205 colorectal tumor cells; test: Tumor cell viability inhibition assay (CellTiter-Glo 2.0, 72 hours); type: cell-based; details: COLO 205 cell viability
Procedure, shortened: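 IC50 derived by 4-parameter fitting after normalizing luminescence to DMSO and max-inhibition wells. Compounds tested as 11 concentrations in 4-fold steps on COLO 205 cells seeded at 1500 per well in RPMI-1640/10% FBS; ATP content measured with CellTiter-Glo 2.0 after 72 h.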

[4] = Homo sapiens, Flp-In-293, 24 h, dual luciferase assay, Flp-In-293 reporter cells, 24 hours, Fluc/Rluc ratio, read-out: DLA 205 IC50
[5] = dual luciferase assay, Flp-In-293 reporter cells, 24 hours, Fluc/Rluc ratio, read-out: DLA 205 IC50
[6] = Homo sapiens, Flp-In-293, 24 h, read-out: DLA 205 IC50, dual luciferase assay, Flp-In-293 reporter cells, 24 hours, Fluc/Rluc ratio

T1 sequence (P06730 whole entry): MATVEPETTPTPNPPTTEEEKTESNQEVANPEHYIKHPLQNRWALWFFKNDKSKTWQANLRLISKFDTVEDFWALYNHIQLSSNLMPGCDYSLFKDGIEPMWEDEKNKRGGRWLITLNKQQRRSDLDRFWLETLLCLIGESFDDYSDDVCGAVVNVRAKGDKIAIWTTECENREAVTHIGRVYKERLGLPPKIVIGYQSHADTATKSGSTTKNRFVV

Compound | IC50 [2] [nM] | IC50 ([3]; Homo sapiens, COLO 205, 72 h) [nM] | IC50 [3] [nM] | IC50 [1, 4] [nM] | IC50 [1, 5] [nM] | IC50 [1, 6] [nM] | IC50 ([3]; Homo sapiens) [nM]
Cc1cc(-c2cc(Cl)ccc2OCCn2c(C)nc3c(c2=O)CC(N(C)Cc2ccncc2)CC3)c2scc(C(=O)NS(C)(=O)=O)c2n1 (single isomer, unassigned) [Compound 330] | < 100 | < 5000 | – | < 1000 | – | – | –
Cc1cc(-c2cc(Cl)ccc2OCCn2c(C)nc3c(c2=O)CC(N(C)C2CC2)CC3)c2scc(C(=O)O)c2n1 (single isomer, unassigned) [Compound 335] | < 100 | < 5000 | – | < 1000 | – | – | –
Cc1cc(-c2cc(Cl)ccc2OCCn2c(C)nc3c(c2=O)CC(N(C)C2CC2)CC3)c2scc(C(=O)O)c2n1 (single isomer, unassigned) [Compound 336] | < 100 | – | < 5000 | – | < 1000 | – | –
Cc1cc(-c2cc(Cl)ccc2OCCn2c(C)nc3c(c2=O)CC(N(C)C2CCC(F)(F)C2)CC3)c2scc(C(=O)O)c2n1 (single isomer, unassigned) [Compound 337] | < 100 | < 5000 | – | < 1000 | – | – | –
Cc1cc(-c2cc(Cl)ccc2OCCn2c(C)nc3c(c2=O)CC(N(C)C2CCC(F)(F)C2)CC3)c2scc(C(=O)O)c2n1 (single isomer, unassigned) [Compound 338] | < 100 | – | < 5000 | – | < 1000 | – | –
Cc1cc(-c2cc(Cl)ccc2OCCn2c(C)nc3c(c2=O)CC(N2CC(F)(F)C2)CC3)c2sccc2n1 (single isomer, unassigned) [Compound 340] | 500 to 5000 | > 20000 | – | > 5000 | – | – | –
Cc1cc(-c2cc(Cl)ccc2OCCn2c(C)nc3c(c2=O)CC(N2CC(F)(F)C2)CC3)c2sccc2n1 (single isomer, unassigned) [Compound 341] | 500 to 5000 | – | > 20000 | – | > 5000 | – | –
Cc1cc(-c2cc(Cl)ccc2OCCn2c(C)nc3c(c2=O)CC(N2CC(F)C2)CC3)c2scc(C(=O)NS(C)(=O)=O)c2n1 (single isomer, unassigned) [Compound 342] | < 100 | < 5000 | – | < 1000 | – | – | –
Cc1cc(-c2cc(Cl)ccc2OCCn2c(C)nc3c(c2=O)CC(N2CC(F)C2)CC3)c2scc(C(=O)NS(C)(=O)=O)c2n1 (single isomer, unassigned) [Compound 343] | < 100 | – | < 5000 | – | < 1000 | – | –
Cc1cc(-c2cc(Cl)ccc2OCCn2c(C)nc3c(c2=O)CC(N(C)CC2(C)COC2)CC3)c2scc(C(=O)O)c2n1 (single isomer, unassigned) [Compound 344] | < 100 | < 5000 | – | < 1000 | – | – | –
Cc1cc(-c2cc(Cl)ccc2OCCn2c(C)nc3c(c2=O)CC(N(C)CC2(C)COC2)CC3)c2scc(C(=O)O)c2n1 (single isomer, unassigned) [Compound 345] | < 100 | – | 5000 to 20000 | – | < 1000 | – | –
Cc1cc(-c2cc(Cl)ccc2OCCn2c(C)nc3c(c2=O)CC(N(C)Cc2ccncc2)CC3)c2scc(C(=O)O)c2n1 (single isomer, unassigned) [Compound 354] | < 100 | – | < 5000 | – | < 1000 | – | –
Cc1cc(-c2cc(Cl)ccc2OCCn2c(C)nc3c(c2=O)CC(N2CC4COCC4C2)CC3)c2scc(C(=O)NS(C)(=O)=O)c2n1 (single isomer, unassigned) [Compound 359] | < 100 | < 5000 | – | < 1000 | – | – | –
CNC1CCc2nc(C)n(CCOc3ccc(Cl)cc3-c3cccc(C(=O)O)c3)c(=O)c2C1 (stereo not drawn) [Compound 2] | < 100 | – | – | – | – | > 5000 | < 5000
Cc1cc(-c2cc(Cl)ccc2OCCn2c(C)nc3c(c2=O)CC(N2CCCC2)CC3)c2scc(C(=O)O)c2n1 (stereo not drawn) [Compound 4] | < 100 | – | – | – | – | < 1000 | 5000 to 20000
COC1CCc2nc(C)n(CCOc3ccc(Cl)cc3-c3cc(C)nc4c(C(=O)O)csc34)c(=O)c2C1 (stereo not drawn) [Compound 7] | 100 to 500 | – | – | – | – | 1000 to 5000 | 5000 to 20000
Cc1cc(-c2cc(Cl)ccc2OCCn2c(C)nc3c(c2=O)CC(N2CCC2)CC3)c2scc(C(=O)O)c2n1 (stereo not drawn) [Compound 8] | < 100 | – | – | – | – | < 1000 | 5000 to 20000
Cc1cc(-c2cc(Cl)ccc2OCCn2c(C)nc3c(c2=O)CC(N2CCOCC2)CC3)c2scc(C(=O)O)c2n1 (stereo not drawn) [Compound 9] | < 100 | – | – | – | – | < 1000 | < 5000
Cc1cc(-c2cc(Cl)ccc2OCCn2c(C)nc3c(c2=O)CC(N2CCN(C)CC2)CC3)c2scc(C(=O)O)c2n1 (stereo not drawn) [Compound 10] | < 100 | – | – | – | – | 1000 to 5000 | 5000 to 20000
CC(=O)N(C)C1CCc2nc(C)n(CCOc3ccc(Cl)cc3-c3cccc(C(=O)O)c3)c(=O)c2C1 (stereo not drawn) [Compound 15] | 500 to 5000 | > 20000 | – | > 5000 | – | – | –
Cc1cc(-c2cc(Cl)ccc2OCCn2c(C)nc3c(c2=O)CC(N(C)Cc2ccncc2)CC3)c2scc(C(=O)O)c2n1 (stereo not drawn) [Compound 16] | < 100 | < 5000 | – | < 1000 | – | – | –
Cc1cc(-c2cc(Cl)ccc2OCCn2c(C)nc3c(c2=O)CC(N2CC4COCC4C2)CC3)c2scc(C(=O)O)c2n1 (stereo not drawn) [Compound 19] | < 100 | < 5000 | – | < 1000 | – | – | –
Cc1cc(-c2cc(Cl)ccc2OCCn2c(C)nc3c(c2=O)CC(N2CC4(COC4)C2)CC3)c2scc(C(=O)O)c2n1 (stereo not drawn) [Compound 20] | < 100 | < 5000 | – | < 1000 | – | – | –
Cc1cc(-c2cc(Cl)ccc2OCCn2c(C)nc3c(c2=O)CC(N2CC4(CCN(C)C4)C2)CC3)c2scc(C(=O)O)c2n1 (stereo not drawn) [Compound 21] | < 100 | > 20000 | – | > 5000 | – | – | –
Cc1cc(-c2cc(Cl)ccc2OCCn2c(C)nc3c(c2=O)CC(N2CC4(CCN(C)CC4)C2)CC3)c2scc(C(=O)O)c2n1 (stereo not drawn) [Compound 22] | < 100 | > 20000 | – | 1000 to 5000 | – | – | –
Cc1cc(-c2cc(Cl)ccc2OCCn2c(C)nc3c(c2=O)CC(N2CC(C)(N(C)C)C2)CC3)c2scc(C(=O)O)c2n1 (stereo not drawn) [Compound 23] | < 100 | > 20000 | – | > 5000 | – | – | –

Second part, led by results:

IC50 [2] [nM] | IC50 ([3]; Homo sapiens, COLO 205, 72 h) [nM] | IC50 [3] [nM] | Compound | IC50 [1, 4] [nM] | IC50 [1, 5] [nM] | IC50 [1, 6] [nM] | IC50 ([3]; Homo sapiens) [nM]
< 100 | < 5000 | – | Cc1nc2c(c(=O)n1CC#Cc1ccc(Cl)cc1-c1ccnc3c(C(=O)O)csc13)C[C@@H](N1CC[C@@H](F)C1)CC2 (single isomer, unassigned) [Compound 327] | < 1000 | – | – | –
< 100 | < 5000 | – | Cc1cc(-c2cc(Cl)ccc2OCCn2c(C)nc3c(c2=O)C[C@@H](N2CC[C@@H](F)C2)CC3)c2scc(C(=O)O)c2n1 (single isomer, unassigned) [Compound 329] | < 1000 | – | – | –
100 to 500 | 5000 to 20000 | – | Cc1nc2c(c(=O)n1CC#Cc1ccc(Cl)cc1-c1ccnc3c(C(=O)NS(C)(=O)=O)csc13)CC(N1CC(F)(F)C1)CC2 (single isomer, unassigned) [Compound 331] | – | 1000 to 5000 | – | –
100 to 500 | – | 5000 to 20000 | Cc1nc2c(c(=O)n1CC#Cc1ccc(Cl)cc1-c1ccnc3c(C(=O)NS(C)(=O)=O)csc13)CC(N1CC(F)(F)C1)CC2 (single isomer, unassigned) [Compound 332] | – | > 5000 | – | –
< 100 | < 5000 | – | Cc1nc2c(c(=O)n1CC#Cc1ccc(Cl)cc1-c1ccnc3c(C(=O)NS(C)(=O)=O)csc13)CC(N(C)C1CC(F)(F)C1)CC2 (single isomer, unassigned) [Compound 333] | < 1000 | – | – | –
< 100 | – | < 5000 | Cc1nc2c(c(=O)n1CC#Cc1ccc(Cl)cc1-c1ccnc3c(C(=O)NS(C)(=O)=O)csc13)CC(N(C)C1CC(F)(F)C1)CC2 (single isomer, unassigned) [Compound 334] | – | < 1000 | – | –
< 100 | < 5000 | – | Cc1cc(-c2cc(Cl)ccc2OCCn2c(C)nc3c(c2=O)C[C@H](N2CC[C@H](F)C2)CC3)c2scc(C(=O)NS(C)(=O)=O)c2n1 (single isomer, unassigned) [Compound 346] | < 1000 | – | – | –
< 100 | < 5000 | – | Cc1cc(-c2cc(Cl)ccc2OCCn2c(C)nc3c(c2=O)C[C@@H](N2CC[C@H](F)C2)CC3)c2scc(C(=O)NS(C)(=O)=O)c2n1 (single isomer, unassigned) [Compound 347] | < 1000 | – | – | –
< 100 | < 5000 | – | Cc1nc2c(c(=O)n1CC#Cc1ccc(Cl)cc1-c1ccnc3c(C(=O)NS(C)(=O)=O)csc13)C[C@H](N1CC[C@@H](F)C1)CC2 (single isomer, unassigned) [Compound 348] | < 1000 | – | – | –
< 100 | < 5000 | – | Cc1nc2c(c(=O)n1CC#Cc1ccc(Cl)cc1-c1ccnc3c(C(=O)NS(C)(=O)=O)csc13)C[C@@H](N1CC[C@@H](F)C1)CC2 (single isomer, unassigned) [Compound 349] | < 1000 | – | – | –
< 100 | < 5000 | – | COC1CCN(C2CCc3nc(C)n(CCOc4ccc(Cl)cc4-c4cc(C)nc5c(C(=O)O)csc45)c(=O)c3C2)CC1 (stereo not drawn) [Compound 12] | < 1000 | – | – | –
< 100 | 5000 to 20000 | – | Cc1cc(-c2cc(Cl)ccc2OCCn2c(C)nc3c(c2=O)CC(N2CC(N4CCOCC4)C2)CC3)c2scc(C(=O)O)c2n1 (stereo not drawn) [Compound 17] | 1000 to 5000 | – | – | –
